Reference: PMC7784776 (ACS chemical biology, 2020)
Converted amounts (≈) assume the structure as drawn. “And” between values parts separate entries of the source, which are not always exact repeats. Identical values can stand only once. Like-named read-outs stand apart in the source and are kept apart here.

Assays:
B. subtilis PY79 = assay: Minimum inhibitory concentration; format: cell-based; conditions: Bacillus subtilis
PBP1a/1b = PBP1a/1b (Bacillus subtilis, UniProt P39793); assay: Fluorescent whole cell β-lactam titration with Boc-FL readout, SDS-PAGE; format: cell-based
Sequence of PBP1a/1b (P39793 77-662): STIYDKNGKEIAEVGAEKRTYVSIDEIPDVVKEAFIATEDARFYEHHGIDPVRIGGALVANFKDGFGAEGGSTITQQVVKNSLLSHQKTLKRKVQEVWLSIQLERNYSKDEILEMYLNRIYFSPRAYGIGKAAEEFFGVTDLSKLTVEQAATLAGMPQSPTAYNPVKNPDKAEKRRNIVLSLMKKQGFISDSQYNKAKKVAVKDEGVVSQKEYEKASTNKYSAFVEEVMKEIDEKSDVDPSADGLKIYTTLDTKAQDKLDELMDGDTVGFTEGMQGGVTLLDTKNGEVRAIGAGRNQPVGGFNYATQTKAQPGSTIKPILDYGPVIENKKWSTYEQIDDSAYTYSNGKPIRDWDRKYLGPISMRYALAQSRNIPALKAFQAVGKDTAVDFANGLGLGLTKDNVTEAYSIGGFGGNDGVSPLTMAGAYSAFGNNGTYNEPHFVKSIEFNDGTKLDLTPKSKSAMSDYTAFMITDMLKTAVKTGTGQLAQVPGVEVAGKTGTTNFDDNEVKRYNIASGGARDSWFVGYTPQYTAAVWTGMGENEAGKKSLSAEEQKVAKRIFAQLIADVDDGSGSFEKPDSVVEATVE

PBP2a = PBP2a (Bacillus subtilis, UniProt P54488); assay: as above; format: cell-based
Sequence of PBP2a (P54488 whole entry): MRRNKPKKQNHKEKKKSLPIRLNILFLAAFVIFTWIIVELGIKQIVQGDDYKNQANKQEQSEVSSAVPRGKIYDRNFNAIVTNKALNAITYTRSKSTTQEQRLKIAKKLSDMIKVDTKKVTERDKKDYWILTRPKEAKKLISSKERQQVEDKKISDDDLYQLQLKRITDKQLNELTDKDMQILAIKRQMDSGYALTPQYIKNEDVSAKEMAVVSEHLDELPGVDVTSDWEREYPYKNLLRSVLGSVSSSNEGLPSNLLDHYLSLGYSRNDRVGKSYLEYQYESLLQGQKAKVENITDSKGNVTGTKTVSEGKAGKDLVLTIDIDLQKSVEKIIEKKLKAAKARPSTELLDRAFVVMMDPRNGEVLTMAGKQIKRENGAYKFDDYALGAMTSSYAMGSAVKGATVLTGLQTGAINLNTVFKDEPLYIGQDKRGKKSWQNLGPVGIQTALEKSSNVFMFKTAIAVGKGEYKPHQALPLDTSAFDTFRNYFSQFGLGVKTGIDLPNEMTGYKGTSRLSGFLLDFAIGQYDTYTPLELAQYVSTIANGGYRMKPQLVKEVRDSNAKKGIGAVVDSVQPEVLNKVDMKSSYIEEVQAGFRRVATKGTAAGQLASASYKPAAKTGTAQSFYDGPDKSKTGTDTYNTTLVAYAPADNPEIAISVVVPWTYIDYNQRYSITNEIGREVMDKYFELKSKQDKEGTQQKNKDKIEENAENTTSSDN

PBP2b/H = PBP2b/H (Bacillus subtilis, UniProt Q07868); assay: as above; format: cell-based; conditions: for inhibition of PBP2b at MIC: at growth inhibitory concentration, substantial inhibition (>50%) not the case
Sequence of PBP2b/H (Q07868 whole entry): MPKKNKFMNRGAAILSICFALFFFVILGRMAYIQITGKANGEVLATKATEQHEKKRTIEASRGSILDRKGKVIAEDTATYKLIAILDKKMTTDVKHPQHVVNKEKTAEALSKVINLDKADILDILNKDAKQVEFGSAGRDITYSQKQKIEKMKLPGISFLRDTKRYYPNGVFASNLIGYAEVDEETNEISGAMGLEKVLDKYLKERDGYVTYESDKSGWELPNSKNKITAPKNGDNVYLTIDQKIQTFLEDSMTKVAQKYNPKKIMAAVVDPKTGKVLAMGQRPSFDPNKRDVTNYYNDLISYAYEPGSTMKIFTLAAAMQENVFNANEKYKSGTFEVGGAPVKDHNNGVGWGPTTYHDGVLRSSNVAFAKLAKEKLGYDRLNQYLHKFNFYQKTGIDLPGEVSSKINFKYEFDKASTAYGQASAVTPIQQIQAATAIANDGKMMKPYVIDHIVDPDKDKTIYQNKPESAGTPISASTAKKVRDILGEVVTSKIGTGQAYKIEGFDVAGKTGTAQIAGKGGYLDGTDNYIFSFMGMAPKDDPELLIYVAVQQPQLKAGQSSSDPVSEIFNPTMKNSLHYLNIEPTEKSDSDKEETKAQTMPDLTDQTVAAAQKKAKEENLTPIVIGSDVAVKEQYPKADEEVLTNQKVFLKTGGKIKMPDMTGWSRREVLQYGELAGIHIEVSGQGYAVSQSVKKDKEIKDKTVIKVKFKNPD

PBP3 [1] = target: T1, PBP3 (Bacillus subtilis, UniProt P42971); assay: as above; format: cell-based
T1 sequence (P42971 whole entry): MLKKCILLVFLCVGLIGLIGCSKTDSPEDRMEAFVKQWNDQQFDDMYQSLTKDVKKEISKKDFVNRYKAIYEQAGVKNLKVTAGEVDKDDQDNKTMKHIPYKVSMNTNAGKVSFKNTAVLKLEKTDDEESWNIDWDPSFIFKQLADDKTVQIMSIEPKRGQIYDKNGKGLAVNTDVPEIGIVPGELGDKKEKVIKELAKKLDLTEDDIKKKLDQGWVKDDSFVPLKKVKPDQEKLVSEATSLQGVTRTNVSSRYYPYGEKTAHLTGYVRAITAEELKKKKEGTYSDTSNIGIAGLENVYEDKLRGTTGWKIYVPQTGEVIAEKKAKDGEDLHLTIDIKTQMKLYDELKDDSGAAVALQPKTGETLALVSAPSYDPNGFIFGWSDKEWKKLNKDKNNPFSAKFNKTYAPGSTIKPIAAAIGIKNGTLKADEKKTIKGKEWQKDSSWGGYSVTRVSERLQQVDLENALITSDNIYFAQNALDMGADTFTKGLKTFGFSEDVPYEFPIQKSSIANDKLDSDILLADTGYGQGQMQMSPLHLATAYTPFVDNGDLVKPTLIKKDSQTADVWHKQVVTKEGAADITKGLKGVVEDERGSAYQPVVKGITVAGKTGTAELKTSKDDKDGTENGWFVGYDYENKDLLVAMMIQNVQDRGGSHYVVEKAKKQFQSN

PBP4 = PBP4 (Bacillus subtilis, UniProt P40750); assay: as above; format: cell-based
Sequence of PBP4 (P40750 22-624): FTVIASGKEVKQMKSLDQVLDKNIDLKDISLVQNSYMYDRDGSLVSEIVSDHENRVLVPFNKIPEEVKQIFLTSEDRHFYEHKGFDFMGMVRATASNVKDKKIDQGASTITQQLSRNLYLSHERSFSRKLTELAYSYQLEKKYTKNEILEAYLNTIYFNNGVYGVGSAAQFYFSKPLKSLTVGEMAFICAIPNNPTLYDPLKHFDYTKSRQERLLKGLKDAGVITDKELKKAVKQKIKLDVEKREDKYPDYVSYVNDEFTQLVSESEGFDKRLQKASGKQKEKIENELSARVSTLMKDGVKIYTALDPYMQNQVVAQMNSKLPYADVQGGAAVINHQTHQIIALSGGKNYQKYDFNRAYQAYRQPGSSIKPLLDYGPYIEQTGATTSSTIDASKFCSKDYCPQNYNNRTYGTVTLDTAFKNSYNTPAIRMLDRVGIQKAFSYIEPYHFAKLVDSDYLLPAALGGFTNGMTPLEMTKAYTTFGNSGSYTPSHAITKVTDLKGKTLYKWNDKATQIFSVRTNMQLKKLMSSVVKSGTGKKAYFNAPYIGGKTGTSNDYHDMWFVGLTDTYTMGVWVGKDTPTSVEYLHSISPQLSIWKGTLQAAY

PBP5 = PBP5 (Bacillus subtilis, UniProt P08750); assay: as above; format: cell-based
Sequence of PBP5 (P08750 32-443): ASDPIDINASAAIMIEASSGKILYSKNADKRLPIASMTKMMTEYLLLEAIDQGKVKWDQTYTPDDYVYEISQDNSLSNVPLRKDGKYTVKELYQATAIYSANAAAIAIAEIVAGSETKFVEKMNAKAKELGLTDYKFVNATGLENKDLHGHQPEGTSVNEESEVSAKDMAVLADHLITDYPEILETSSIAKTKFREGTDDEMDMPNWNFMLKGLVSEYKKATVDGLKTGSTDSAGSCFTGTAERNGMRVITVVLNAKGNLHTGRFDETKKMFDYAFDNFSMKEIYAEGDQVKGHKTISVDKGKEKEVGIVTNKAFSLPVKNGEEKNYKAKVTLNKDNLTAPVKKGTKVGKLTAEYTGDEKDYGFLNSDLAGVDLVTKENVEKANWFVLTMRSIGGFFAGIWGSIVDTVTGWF

B. subtilis PBPs [2] = assay: PBP inhibition/selectivity profile across all detected PBPs; format: cell-based, Bacillus subtilis; conditions: at MIC
B. subtilis PBPs [3] = assay: β-Lactam titration of DK694; format: cell-based, Bacillus subtilis; conditions: DK694 (ΔpbpH) cells
B. subtilis PBPs [4] = assay: PBP activity profile after growth with sub-MIC meropenem; format: cell-based, Bacillus subtilis; conditions: 0.01 μg/mL, 2 h
PBP3 [5] = target: T1, PBP3; assay: Fluorescence imaging of PBP3 activity with MEM-BODIPY FL in live DK654; format: cell-based; conditions: pretreatment 10 μg/mL
[6] = IC50 PBP3, B. subtilis PY79 whole cells, average of two experiments
[7] = read-out: IC50 PBP2a, B. subtilis PY79 whole cells, average of two experiments

SMILES	MIC (B. subtilis PY79)	IC50 (PBP1a/1b)	IC50 (PBP2a)	IC50 (PBP2b/H)	inhibition of PBP2b at MIC (PBP2b/H)	IC50 (PBP3 [1]; [6])	IC50 (PBP4)	IC50 (PBP5)	PBP inhibition at growth inhibitory concentrations (B. subtilis PBPs [2])	IC50 values for individual PBPs in DK694 (ΔpbpH) versus wild type (B. subtilis PBPs [3])	IC50 (PBP2a; [7])	IC50 (PBP3 [1]; read-out: IC50 PBP3, B. subtilis PY79 whole cells, average of two experiments)	IC50 (PBP3 [1]; 50% inhibition of PBP3, concentration in μM, corresponding to 0.26 μg/mL)	concentration for complete inhibition of PBP3 (PBP3 [1]; B. subtilis whole cells)	concentration for complete inhibition of PBP3 (PBP3 [1]; corresponding to 1 μg/mL)	concentration for selective and complete inhibition of PBP5 (PBP5; B. subtilis whole cells)	concentration for selective and complete inhibition of PBP5 (PBP5; corresponding to ~1 μg/mL)	PBP inhibition after growth with sub-MIC concentration (B. subtilis PBPs [4])	MEM-BODIPY FL fluorescent signal upon pretreatment of the cells (PBP3 [5])
CC1(C)S[C@@H]2[C@H](N)C(=O)N2[C@H]1C(=O)O [6-APA, 6-Aminopenicillanic acid]	8 to 256 µg/mL (≈ 37 to 1180 µM)	> 4620 µM	511 µM	> 4620 µM	≤ 50%	> 4620 µM	> 4620 µM	19 µM	failed to significantly block any PBPs	–	–	–	–	–	–	–	–	–	–
CC1(C)S[C@@H]2[C@H](NC(=O)[C@H](N)c3ccc(O)cc3)C(=O)N2[C@H]1C(=O)O [amoxicillin]	4 µg/mL (≈ 10.9 µM)	0.00274 µM	0.203 µM	0.241 µM	–	0.383 µM	0.208 µM	3.04 µM	–	–	–	–	–	–	–	–	–	–	–
CC1(C)S[C@@H]2[C@H](NC(=O)[C@H](N)c3ccccc3)C(=O)N2[C@H]1C(=O)O [ampicillin]	8 µg/mL (≈ 22.9 µM)	< 0.0286 µM	0.0103 µM	0.0269 µM	–	0.12 µM	0.0106 µM	0.343 µM	–	comparable and within twofold in most cases	–	–	–	–	–	–	–	–	–
C[C@H]1[C@H](NC(=O)/C(=N\OC(C)(C)C(=O)O)c2csc(N)n2)C(=O)N1S(=O)(=O)O [aztreonam]	16 µg/mL (≈ 36.7 µM)	–	–	–	≤ 50%	–	–	–	–	–	–	–	–	–	–	–	–	–	–
CO/N=C(\C(=O)N[C@@H]1C(=O)N2C(C(=O)O)=C(COC(C)=O)CS[C@H]12)c1csc(N)n1 [cefotaxime]	0.0625 µg/mL (≈ 0.137 µM)	0.00285 µM	–	< 0.22 µM	–	2.17 µM	< 0.22 µM	> 2200 µM	–	–	< 220 µM	–	–	–	–	–	–	–	–
CO[C@@]1(NC(=O)Cc2cccs2)C(=O)N2C(C(=O)O)=C(COC(N)=O)CS[C@@H]21 [cefoxitin]	1 µg/mL (≈ 2.34 µM)	0.0328 µM	1.68 µM	0.444 µM	–	2.43 µM	0.0328 µM	0.444 µM	–	–	–	–	–	–	–	–	–	–	–
NC(=O)c1cc[n+](CC2=C(C(=O)O)N3C(=O)[C@@H](NC(=O)[C@@H](c4ccccc4)S(=O)(=O)[O-])[C@H]3SC2)cc1 [cefsulodin]	8 µg/mL (≈ 15 µM)	0.0184 µM	71.4 µM	1.24 µM	–	260 µM	0.225 µM	> 1880 µM	–	–	–	–	–	–	–	–	–	–	–
CO/N=C(\C(=O)N[C@@H]1C(=O)N2C(C(=O)O)=C(CSc3nc(=O)c(=O)[nH]n3C)CS[C@H]12)c1csc(N)n1 [ceftriaxone]	0.25 µg/mL (≈ 0.451 µM)	0.0135 µM	29.4 µM	0.119 µM	–	4.69 µM	0.0361 µM	> 1800 µM	–	–	–	–	–	–	–	–	–	–	–
CO/N=C(\C(=O)N[C@@H]1C(=O)N2C(C(=O)O)=C(COC(N)=O)CS[C@H]12)c1ccco1 [cefuroxime]	0.125 µg/mL (≈ 0.295 µM)	0.00424 µM	65.7 µM	0.189 µM	–	52.3 µM	0.0353 µM	> 2360 µM	–	–	–	–	–	–	–	–	–	–	–
CC1=C(C(=O)O)N2C(=O)[C@@H](NC(=O)[C@H](N)c3ccccc3)[C@H]2SC1 [cephalexin]	0.5 µg/mL (≈ 1.44 µM)	> 2880 µM	< 0.288 µM	< 0.288 µM	–	69.4 µM	732 µM	> 2880 µM	–	–	–	–	–	–	–	–	–	–	–
CC(=O)OCC1=C(C(=O)O)N2C(=O)[C@@H](NC(=O)Cc3cccs3)[C@H]2SC1 [cephalothin]	0.0312 µg/mL (≈ 0.0788 µM)	0.00656 µM	0.0164 µM	0.0192 µM	–	29.8 µM	0.0151 µM	273 µM	–	–	–	–	–	–	–	–	–	–	–
Cc1onc(-c2ccccc2Cl)c1C(=O)N[C@@H]1C(=O)N2[C@@H]1SC(C)(C)[C@@H]2C(=O)O [cloxacillin]	0.125 µg/mL (≈ 0.287 µM)	> 2290 µM	0.206 µM	0.298 µM	≤ 50%	–	0.0505 µM	> 2290 µM	–	–	–	< 2290 µM	–	–	–	–	–	–	–
C[C@@H](O)[C@H]1C(=O)N2C(C(=O)O)=C(S[C@@H]3CN[C@H](CNS(N)(=O)=O)C3)[C@H](C)[C@H]12 [doripenem]	0.0625 µg/mL (≈ 0.149 µM)	> 2380 µM	–	–	–	0.285 µM	> 2380 µM	0.547 µM	–	–	< 2380 µM	–	–	–	–	–	–	–	–
C[C@@H](O)[C@H]1C(=O)N2C(C(=O)O)=C([C@H]3CCCO3)S[C@H]12 [faropenem]	0.125 µg/mL (≈ 0.438 µM)	0.00207 µM	0.0386 µM	0.0179 µM	–	3.29 µM	0.0315 µM	0.701 µM	–	–	–	–	–	–	–	–	–	–	–
CC1(C)S[C@@H]2[C@H](/N=C/N3CCCCCC3)C(=O)N2[C@H]1C(=O)O [mecillinam]	16 µg/mL (≈ 49.2 µM)	> 3070 µM	20.6 µM	3.29 µM	–	275 µM	> 3070 µM	> 3070 µM	–	–	–	–	–	–	–	–	–	–	–
C[C@@H](O)[C@H]1C(=O)N2C(C(=O)O)=C(S[C@@H]3CN[C@H](C(=O)N(C)C)C3)[C@H](C)[C@H]12 [meropenem]	0.0625 µg/mL (≈ 0.163 µM)	> 2610 µM	–	–	≤ 50%	0.678 µM	≥ 2610 µM	0.574 µM	–	–	< 2610 µM	–	0.67 µM	~ 1 μg/mL and 1 μg/mL	2.6 µM	~ 1 μg/mL	2.6 µM	No significant inhibition	significantly reduced
COc1cccc(OC)c1C(=O)N[C@@H]1C(=O)N2[C@@H]1SC(C)(C)[C@@H]2C(=O)O [methicillin]	0.25 µg/mL (≈ 0.657 µM)	> 2630 µM	< 0.0263 µM	< 0.263 µM	–	23.7 µM	0.289 µM	391 µM	–	comparable and within twofold in most cases	–	–	–	–	–	–	–	–	–
Cc1onc(-c2ccccc2)c1C(=O)N[C@@H]1C(=O)N2[C@@H]1SC(C)(C)[C@@H]2C(=O)O [oxacillin]	0.25 µg/mL (≈ 0.623 µM)	> 2490 µM	0.139 µM	0.152 µM	≤ 50%	166 µM	< 0.249 µM	> 2490 µM	–	–	–	–	–	–	–	–	–	–	–
CC1(C)S[C@@H]2[C@H](NC(=O)Cc3ccccc3)C(=O)N2[C@H]1C(=O)O [penicillin G]	16 µg/mL (≈ 47.8 µM)	> 2990 µM	0.0129 µM	0.0568 µM	–	4.19 µM	0.0269 µM	–	–	–	–	–	–	–	–	–	–	–	–
CC1(C)S[C@@H]2[C@H](NC(=O)COc3ccccc3)C(=O)N2[C@H]1C(=O)O [penicillin V]	32 µg/mL (≈ 91.3 µM)	< 0.0285 µM	0.0012 µM	< 0.0285 µM	–	5.82 µM	< 0.0285 µM	1.77 µM	–	–	–	–	–	–	–	–	–	–	–
CCN1CCN(C(=O)N[C@@H](C(=O)N[C@@H]2C(=O)N3[C@@H]2SC(C)(C)[C@@H]3C(=O)O)c2ccccc2)C(=O)C1=O [piperacillin]	64 µg/mL (≈ 124 µM)	0.00232 µM	0.309 µM	< 1.93 µM	–	3.67 µM	0.058 µM	21.8 µM	–	–	–	–	–	–	–	–	–	–	–
